Assay results published in US12577213B2 (NINGBO COMBIREG PHARMACEUTICAL TECHNOLOGY CO., LTD., priority 2020, dated 2026).
Read-outs that look alike come from different tables or passages of the source.

What was measured:
[1] = tested on: LOX-IMVI (melanoma); test: NCI method SRB growth inhibition, LOX-IMVI; type: cell-based; settings: Homo sapiens, treated 48 hours, SRB stain
Procedure, shortened: (§1)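 NCI 60-line protocol, 48 h compound exposure; SRB stain, OD 515 nm. Growth % = (Ti−Tz)/(C−Tz)×100 when Ti≥Tz, else (Ti−Tz)/Tz×100. GI50 at 50, TGI at Ti=Tz, LC50 at −50.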

[2] = Liver microsomes stability; type: in vitro ADME, human; settings: for half-life at 1 μM: human, human liver microsomes
Procedure, shortened: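 Compound at 1 μM final incubated with 1 mg/mL human liver microsomes and 1 mM NADPH (no-NADPH control), sampled at 0, 5, 15, 30, 60 min. Remaining parent quantified by LC-MS/MS; T1/2 = 0.693/k.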

[3] = tested on: 786-0 (renal cancer); test: NCI method SRB growth inhibition, 786-0; type: cell-based; settings: Homo sapiens; 786-0, treated 48 hours, SRB stain
Procedure, shortened: as §1

[4] = tested on: SF295 (central nervous system tumor); test: NCI method SRB growth inhibition, SF295; type: cell-based; settings: Homo sapiens, SF-295; SF295, treated 48 hours, SRB stain
Procedure, shortened: as §1

[5] = tested on: PC-3 (prostate cancer); test: NCI method SRB growth inhibition, PC-3; type: cell-based; settings: Homo sapiens; PC-3, treated 48 hours, SRB stain
Procedure, shortened: as §1

[6] = Metabolic stability in vivo (plasma half-life after IV); settings: intravenously at 1 mg/kg, male BALB/c nude mice; for half-life: mouse, plasma, iv, read-out: T½ of (IV in nude mice) (converted)
Description: The intravenous injection group of the embodiment compound was prepared with the mixed solvent of DMA:PEG400:30% SBECD=5:25:70 to form a 0.2 mg/mL of solution, and administered intravenously at 1 mg/kg of weight; and the oral preparation group was prepared with 0.5% MC to form a 1 mg/mL of solution, and administered by oral gavage at 10 mg/kg weight.
• Male BALB/c nude mice, 4-5 weeks old, purchased from Shanghai SLAC. 3. Experiment Method: 3.1 Instruments: • Liquid chromatography system: Shimadzu liquid chromatography system Shimadzu LC-30AD • MS/MS system: Applied Biosystems API5500 • Data collection: Analyst Software 1.5.2 3.2 Chromatographic Conditions Chromatographic Column • Analytical column: Kinetex 2.6u C18 100 A column (3.0 mm×30 mm) • Mobile phase: A: 10 mM NH4OAc (0.1% FA); B: Acetonitrile with 0.1% […] • Flow rate: 1.0 mL/min
Ion source was an electron spray ionization (ESI source) with negative ion detection; spray voltage source was 5500 V; ion source gas 1 (N2) was 50 psi; ion source gas 2 (N2) was 50 psi; air curtain gas (N2) was 30 psi. Scanning mode was multiple reaction monitoring (MRM); scanning time was 80 ms; collision gas pressure was 10 psi;
Grouping experiment, with three animals in each group, starting from now on, administration was started according to the weight of the animals. Blood was collected according to 5 min, 15 min, 30 min, 1 h, 2 h, 4 h, 8 h and 24 h after administration.
To 25.0 μL of plasma, 25.0 μL of internal standard solution (Tolbutamide (250 ng/mL) in acetonitrile), 25.0 μL of acetonitrile and 100 μL of acetonitrile were added, and the mixture was vortexed for 1 min, and centrifuged for 5 min (14000 rpm). 120 μL of the resulting supernatant was added with 80.0 μL of water (containing 1% formic acid) and mixed well, then analyzed by LC/MS/MS.

[7] = tested on: K562 (leukemia); test: NCI method SRB growth inhibition, K562; type: cell-based; settings: Homo sapiens; K562, treated 48 hours, SRB stain
Procedure, shortened: as §1

[8] = tested on: OVCAR-3 (ovarian cancer); test: NCI method SRB growth inhibition, OVCAR-3; type: cell-based; settings: Homo sapiens; OVCAR-3, treated 48 hours, SRB stain
Procedure, shortened: as §1

[9] = tested on: HS 578T (breast cancer); test: NCI method SRB growth inhibition, HS 578T; type: cell-based; settings: Homo sapiens, HS578T, treated 48 hours, SRB stain
Procedure, shortened: as §1

[10] = tested on: HCT116 (colon cancer); test: NCI method SRB growth inhibition, HCT116; type: cell-based; settings: Homo sapiens, HCT-116; HCT116, treated 48 hours, SRB stain
Procedure, shortened: as §1

[11] = tested on: A549 (non-small cell lung cancer); test: NCI method SRB growth inhibition, A549; type: cell-based; settings: Homo sapiens; A549, treated 48 hours, SRB stain
Procedure, shortened: as §1

[12] = tested on: breast cancer cell line SUM159 sphere; test: Breast cancer stem cell sphere formation; type: cell-based, human; settings: 50 nM; for formation of the sphere after cell passage: 5 days of drug treatment, then passage
Description: The inhibitory effects of embodiment compounds 5, 7, 11, 13, 14, 20 and 21 on the formation of breast cancer cell line SUM159 sphere are described as follows.
The breast cancer cell line SUM159 sphere was cultured with serum-free medium in an ultra-low adsorption plate, the basal medium was DMEM/F12 (without phenol red), and B27 (without vitamin A) (1×), EGF (20 ng/ml), bFGF (20 ng/ml) and insulin (insulin, 5 ug/ml) were added.
An equal number (4000) of SUM159 cells per well were inoculated into an ultra-low adsorption 24 plate, and the sphere was photographed after 5 days of culture, replaced with fresh medium, and treated with drugs at certain concentrations, respectively. Compounds 5, 7, 11, 13, 14, 20 and 21 were evaluated in this experiment at 50 nM, respectively. The effect of the drug on the sphere phenotype could be observed after about 3 days of drug treatment. The sphere was photographed again after 5 days of drug treatment, and then the sphere was passaged. The sphere was photographed again after 7 days of passage.
The differences of the photographs taken in three different stages were counted and compared, and the killing effect of the tested compounds on SUM159 sphere was evaluated through the differences of sphere formation after passage, thus reflecting the inhibitory effects of different compounds on breast cancer stem cells.

[13] = 1 μM compound, 1 mg/mL human liver microsomes, 1 mM NADPH
[14] = 1 μM compound, 1 mg/mL human liver microsomes, 1 mM NADPH, read-out: T½ of HLM
[15] = as repeated in Table 4, read-out: T½ of HLM (in vitro)

Compound | GI50 [1] | microsomal CLint at 1 μM [2, 13] | half-life at 1 μM [2, 14] | half-life at 1 μM [2, 15] | GI50 [3] | GI50 [4] | GI50 [5] | half-life [6] | GI50 [7] | GI50 [8] | GI50 [9] | GI50 [10] | GI50 [11] | killing effect on SUM159 sphere [12] | formation of the sphere after cell passage [12] | T½ of (IV in nude mice) [6]
[2H]C([2H])([2H])Oc1cc(C(=O)Nc2cc3c(cc2Oc2cc(C)cc(C)c2)C(=O)N[C@@H](CC(=O)N(CC)CC)C(=O)N3)c(Cl)c(OC([2H])([2H])[2H])c1OC([2H])([2H])[2H] [Compound 1, (S)-2-chloro-N-[3-[2-(diethylamino)-2-oxoethyl]-7-(3,5-dimethylphenoxy)-2,5-dioxo-2,3,4,5-tetrahydro-1H-benzo[e][1,4]diazepin-8-yl]-3,4,5-tris(trideuteromethoxy)benzamide] | < 5 nM | 16.5 µL/min/mg | 42 min | 42 min | 8.1 nM | 12.3 nM | 5.5 nM | 53.1 min | < 5 nM | 5.5 nM | 31.6 nM | 5.4 nM | 15 nM | – | – | –
[2H]C([2H])([2H])Oc1cc(C(=O)Nc2cc3c(cc2Oc2cc(C)cc(C)c2)C(=O)N[C@@H](CC(=O)N(C([2H])([2H])C([2H])([2H])[2H])C([2H])([2H])C([2H])([2H])[2H])C(=O)N3)c(Cl)c(OC([2H])([2H])[2H])c1OC([2H])([2H])[2H] [Compound 6, (S)-2-chloro-N-[3-[2-[bis(pentadeuteroethyl)amino]-2-oxoethyl]-7-(3,5-dimethylphenoxy)-2,5-dioxo-2,3,4,5-tetrahydro-1H-benzo[e][1,4]diazepin-8-yl]-3,4,5-tris(trideuteromethoxy)benzamide] | < 5 nM | 9.5 µL/min/mg | 73 min | 73 min | 16.9 nM | 13.1 nM | 10.3 nM | 78.6 min | < 5 nM | 11.9 nM | 20.5 nM | < 5 nM | 11.7 nM | – | – | –
[2H]C([2H])([2H])C([2H])([2H])N(C(=O)C[C@@H]1NC(=O)c2cc(Oc3cc(C)cc(C)c3)c(NC(=O)c3cc(OC)c(OC)c(OC)c3Br)cc2NC1=O)C([2H])([2H])C([2H])([2H])[2H] [Compound 7, (S)-2-bromo-N-[3-[2-[bis(pentadeuteroethyl)amino]-2-oxoethyl]-7-(3,5-dimethylphenoxy)-2,5-dioxo-2,3,4,5-tetrahydro-1H-benzo[e][1,4]diazepin-8-yl]-3,4,5-trimethoxybenzamide] | < 5 nM | 13.9 µL/min/mg | 49.9 min | – | 6.5 nM | < 5 nM | < 5 nM | – | – | < 5 nM | 8.2 nM | < 5 nM | < 5 nM | strong killing effect | significantly reduced | –
[2H]C([2H])([2H])C([2H])([2H])N(C(=O)C[C@@H]1NC(=O)c2cc(Oc3cc(C)cc(C)c3)c(NC(=O)c3cc(OC)c(OC)c(OC)c3Cl)cc2NC1=O)C([2H])([2H])C([2H])([2H])[2H] [Compound 8, (S)-2-chloro-N-[3-[2-[bis(pentadeuteroethyl)amino]-2-oxoethyl]-7-(3,5-dimethylphenoxy)-2,5-dioxo-2,3,4,5-tetrahydro-1H-benzo[e][1,4]diazepin-8-yl]-3,4,5-trimethoxybenzamide] | < 5 nM | 13.7 µL/min/mg | 50.6 min | 50.6 min | 13.9 nM | 10.3 nM | 9.7 nM | 38 min | < 5 nM | 5 nM | 13.3 nM | < 5 nM | 15.3 nM | – | – | –
[2H]C([2H])([2H])C([2H])([2H])N(C(=O)C[C@H]1C(=O)Nc2cc(NC(=O)c3cc(OC)c(OC)c(OC)c3Br)c(Oc3cc(C)cc(C)c3)cc2C(=O)N1C)C([2H])([2H])C([2H])([2H])[2H] [Compound 11, (S)-2-bromo-N-[3-[2-[bis(pentadeuteroethyl)amino]-2-oxoethyl]-7-(3,5-dimethylphenoxy)-4-methyl-2,5-dioxo-2,3,4,5-tetrahydro-1H-benzo[e][1,4]diazepin-8-yl]-3,4,5-trimethoxybenzamide] | < 5 nM | 28.2 µL/min/mg | 24.6 min | – | 10.4 nM | 10.9 nM | < 5 nM | – | < 5 nM | < 5 nM | < 5 nM | 15.7 nM | < 5 nM | strong killing effect | significantly reduced | –
[2H]C([2H])([2H])Oc1cc(C(=O)Nc2cc3c(cc2Oc2cc(C)cc(C)c2)C(=O)N(C)[C@@H](CC(=O)N(C([2H])([2H])C([2H])([2H])[2H])C([2H])([2H])C([2H])([2H])[2H])C(=O)N3)c(Br)c(OC([2H])([2H])[2H])c1OC([2H])([2H])[2H] [Compound 13, (S)-2-bromo-N-[3-[2-[bis(pentadeuteroethyl)amino]-2-oxoethyl]-7-(3,5-dimethylphenoxy)-4-methyl-2,5-dioxo-2,3,4,5-tetrahydro-1H-benzo[e][1,4]diazepin-8-yl]-3,4,5-tris(trideuteromethoxy)benzamide] | < 5 nM | 14.8 µL/min/mg | 46.8 min | – | 11.5 nM | 7.5 nM | < 5 nM | – | < 5 nM | < 5 nM | < 5 nM | < 5 nM | < 5 nM | strong killing effect | significantly reduced | –
CCN(CC)C(=O)C[C@H]1C(=O)Nc2cc(NC(=O)c3cc(OC)c(OC)c(OC)c3Br)c(Oc3cc(C)cc(C)c3)cc2C(=O)N1C [a, reference compound] | – | 63.1 µL/min/mg | 11 min | 11 min | – | – | – | – | – | – | – | – | – | – | – | 31.9 min
COc1cc(C(=O)Nc2cc3c(cc2Oc2cc(C)cc(C)c2)C(=O)N[C@@H](CC(=O)N(C)C)C(=O)N3)c(Br)c(OC)c1OC [d, reference compound] | – | – | – | 100 min | – | – | – | 46.6 min | – | – | – | – | – | – | – | –
